Measured values reported in patent US11000033B2, “Ketone or oxime compound, and herbicide” (NISSAN CHEMICAL CORPORATION, priority 2014, dated 2021).

How the values were obtained:
Assay type in all cases: in vivo
Avena fatua [1] = experiment: Test Example 4: herbicidal effect by soil treatment (symbol I)
Summary of the method: (§1)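 Seeds were sown in sterilized diluvial soil, covered with about 1.5 cm of soil, and the soil surface was sprayed with a water-diluted emulsion of the compound at a predetermined rate. Plants grew in a greenhouse at 25° C. to 30° C.; effects were scored visually 3 weeks after application.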

Stellaria media = experiment: Test Example 4: herbicidal effect by soil treatment (symbol P)
Summary of the method: as §1

Abutilon theophrasti [2] = experiment: Test Example 5: herbicidal effect by foliage application, plastic box (symbol M); settings: 320 g/ha, 3 weeks after application
Summary of the method: (§2)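 After sowing into sterilized diluvial soil and growing two weeks under glass at 25° C. to 30° C., seedlings receive a uniform foliar spray of diluted emulsion. Damage is judged visually three weeks on.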

Abutilon theophrasti [3] = experiment: Test Example 4: herbicidal effect by soil treatment (symbol M)
Summary of the method: as §1

corn = experiment: Test Example 4: effect on crop by soil treatment (symbol c)
Summary of the method: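 Steps: fill box with sterilized diluvial soil; sow seed spot-like; cover with ~1.5 cm soil; grow in greenhouse (25° C. to 30° C.).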

Leptochloa chinensis = experiment: Test Example 3: herbicidal effect by foliage application, Wagner pot (symbol D); settings: application herbicide amount 320 g/ha
Summary of the method: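 The compound, formulated as an emulsion and diluted with water to a predetermined rate, is applied uniformly to leaves of two-week-old seedlings growing in submerged alluvial soil at 25–30 °C. Rice is included. Each plant is assessed 3 weeks later using defined criteria.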

beet = experiment: Test Example 4: effect on crop by soil treatment (symbol f)
Summary of the method: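 Crop seeds, among them rice, wheat, beet and rapeseed, were sown in sterilized diluvial soil and covered with about 1.5 cm of soil. Boxes were kept in a greenhouse at 25° C. to 30° C. for plant growth.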

Digitaria ciliaris = experiment: Test Example 4: herbicidal effect by soil treatment (symbol F)
Summary of the method: as §1

Lolium multiflorum Lam. = experiment: Test Example 5: herbicidal effect by foliage application, plastic box (symbol K); settings: 320 g/ha, 3 weeks after application
Summary of the method: as §2

wheat = experiment: Test Example 5: effect on crop by foliage application, plastic box (symbol e); settings: 320 g/ha, 3 weeks after application
Summary of the method: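 Plants were raised from seed in a greenhouse (25° C. to 30° C.) after sowing in a plastic box of sterilized diluvial soil.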

[4] = system: directly sowed rice plant; experiment: Test Example 3: effect on crop by foliage application, Wagner pot (symbol b); settings: application herbicide amount 320 g/ha
Summary of the method: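 Greenhouse culture at 25–30 °C of seeded rice, Cyperus difformis, Leptochloa chinensis and Echinochloa crus-galli var. crus-galli, in alluvial soil held under 0.1–0.5 cm of water in a Wagner pot.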

Avena fatua [5] = experiment: Test Example 5: herbicidal effect by foliage application, plastic box (symbol I); settings: 320 g/ha, 3 weeks after application
Summary of the method: as §2

Scirpus juncoides = experiment: Test Example 2: herbicidal activity, application during weed generation in submerged conditions (symbol B); settings: Table 23; application herbicide amount 320 g/ha; grade 0-5 by criteria of Test Example 1
Summary of the method: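 Treatment timing was the one- to two-leaf stage, with diluted emulsifiable compound dropped onto the paddy water (depth 4 cm) over alluvial soil. All three species grew from a mixed sowing in a 25° C. to 30° C. greenhouse. Injury was judged by eye 3 weeks on.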

[6] = application herbicide amount 320 g/ha

SMILES	I (Avena fatua) herbicidal effect grade (Avena fatua [1]; [6])	P (Stellaria media) herbicidal effect grade (Stellaria media; [6])	M: Abutilon theophrasti, herbicidal effect grade (Abutilon theophrasti [2])	M (Abutilon theophrasti) herbicidal effect grade (Abutilon theophrasti [3]; [6])	c (corn) effect on crop grade (corn; [6])	herbicidal effect on D (Leptochloa chinensis), grade 0-5 (Leptochloa chinensis)	f (beet) effect on crop grade (beet; [6])	F (Digitaria ciliaris) herbicidal effect grade (Digitaria ciliaris; [6])	K: Lolium multiflorum Lam., herbicidal effect grade (Lolium multiflorum Lam.)	e: wheat, effect on crop grade (wheat)	effect on crop b (directly sowed rice plant), grade 0-5 [4]	I: Avena fatua, herbicidal effect grade (Avena fatua [5])	Herbicidal effect grade, B: Scirpus juncoides (Scirpus juncoides)	other results
CON=C(C)CC1CC(OC(=O)C(C)Cl)=C(c2c(C)cc(C)cc2C)C1=O (stereo not drawn) [1-042]	3 (Herbicidal ratio of 40% or higher and lower than 70%)	0 (Herbicidal ratio of 5% or lower (almost no effect))	3 (Herbicidal ratio of 40% or higher and lower than 70%)	5 (Herbicidal ratio of 90% or more (almost completely withered))	3 (Herbicidal ratio of 40% or higher and lower than 70%)	5 (Herbicidal ratio of 90% or more (almost completely withered))	0 (Herbicidal ratio of 5% or lower (almost no effect))	5 (Herbicidal ratio of 90% or more (almost completely withered))	5 (Herbicidal ratio of 90% or more (almost completely withered))	5 (Herbicidal ratio of 90% or more (almost completely withered))	5 (Herbicidal ratio of 90% or more (almost completely withered))	5 (Herbicidal ratio of 90% or more (almost completely withered))	4 (Herbicidal ratio of 70% or higher and lower than 90%)	–
CON=C(C)CC1CC(OC(=O)COc2ccccc2OC)=C(c2c(C)cc(C)cc2C)C1=O (stereo not drawn) [1-067]	3 (Herbicidal ratio of 40% or higher and lower than 70%)	0 (Herbicidal ratio of 5% or lower (almost no effect))	5 (Herbicidal ratio of 90% or more (almost completely withered))	5 (Herbicidal ratio of 90% or more (almost completely withered))	3 (Herbicidal ratio of 40% or higher and lower than 70%)	5 (Herbicidal ratio of 90% or more (almost completely withered))	0 (Herbicidal ratio of 5% or lower (almost no effect))	5 (Herbicidal ratio of 90% or more (almost completely withered))	3 (Herbicidal ratio of 40% or higher and lower than 70%)	5 (Herbicidal ratio of 90% or more (almost completely withered))	5 (Herbicidal ratio of 90% or more (almost completely withered))	5 (Herbicidal ratio of 90% or more (almost completely withered))	4 (Herbicidal ratio of 70% or higher and lower than 90%)	–
CON=C(CC1CC(O)=C(c2c(C)cc(C#C[Si](C)(C)C)cc2C)C1=O)C(C)C (stereo not drawn) [9-005]	–	–	0 (Herbicidal ratio of 5% or lower (almost no effect))	–	–	–	–	–	5 (Herbicidal ratio of 90% or more (almost completely withered))	0 (Herbicidal ratio of 5% or lower (almost no effect))	–	5 (Herbicidal ratio of 90% or more (almost completely withered))	0 (Herbicidal ratio of 5% or lower (almost no effect))	Herbicidal effect grade, I: Avena fatua (Avena fatua [1]; [6]): 0 (Herbicidal ratio of 5% or lower (almost no effect)); Herbicidal effect grade, P: Stellaria media (Stellaria media; [6]): 0 (Herbicidal ratio of 5% or lower (almost no effect)); Herbicidal effect grade, M: Abutilon theophrasti (Abutilon theophrasti [3]; [6]): 0 (Herbicidal ratio of 5% or lower (almost no effect)); Effect on crop grade, c: corn (corn; [6]): 0 (Herbicidal ratio of 5% or lower (almost no effect)); D (Leptochloa chinensis) herbicidal effect grade (Leptochloa chinensis; Table 24): 5 (Herbicidal ratio of 90% or more (almost completely withered)); Effect on crop grade, f: beet (beet; [6]): 0 (Herbicidal ratio of 5% or lower (almost no effect)); Herbicidal effect grade, F: Digitaria ciliaris (Digitaria ciliaris; [6]): 1 (Herbicidal ratio of 5% or higher and lower than 20%); b (directly sowed rice plant) effect on crop grade ([4]; Table 24): 4 (Herbicidal ratio of 70% or higher and lower than 90%)
CON=C(C)CC1CC(OC(=O)COc2ccc(C)cc2)=C(c2c(C)cc(C)cc2C)C1=O (stereo not drawn) [1-072]	4 (Herbicidal ratio of 70% or higher and lower than 90%)	0 (Herbicidal ratio of 5% or lower (almost no effect))	5 (Herbicidal ratio of 90% or more (almost completely withered))	4 (Herbicidal ratio of 70% or higher and lower than 90%)	5 (Herbicidal ratio of 90% or more (almost completely withered))	5 (Herbicidal ratio of 90% or more (almost completely withered))	0 (Herbicidal ratio of 5% or lower (almost no effect))	5 (Herbicidal ratio of 90% or more (almost completely withered))	5 (Herbicidal ratio of 90% or more (almost completely withered))	5 (Herbicidal ratio of 90% or more (almost completely withered))	5 (Herbicidal ratio of 90% or more (almost completely withered))	5 (Herbicidal ratio of 90% or more (almost completely withered))	3 (Herbicidal ratio of 40% or higher and lower than 70%)	–
CON=CCC1CC(O)=C(c2c(C)cc(C)cc2C)C1=O (stereo not drawn) [1-050]	0 (Herbicidal ratio of 5% or lower (almost no effect))	0 (Herbicidal ratio of 5% or lower (almost no effect))	3 (Herbicidal ratio of 40% or higher and lower than 70%)	1 (Herbicidal ratio of 5% or higher and lower than 20%)	0 (Herbicidal ratio of 5% or lower (almost no effect))	4 (Herbicidal ratio of 70% or higher and lower than 90%)	0 (Herbicidal ratio of 5% or lower (almost no effect))	5 (Herbicidal ratio of 90% or more (almost completely withered))	5 (Herbicidal ratio of 90% or more (almost completely withered))	0 (Herbicidal ratio of 5% or lower (almost no effect))	5 (Herbicidal ratio of 90% or more (almost completely withered))	3 (Herbicidal ratio of 40% or higher and lower than 70%)	0 (Herbicidal ratio of 5% or lower (almost no effect))	–
COCC(=O)OC1=C(c2c(C)cc(C)cc2C)C(=O)C(CC(C)=NOC)C1 (stereo not drawn) [1-093]	–	–	–	–	–	5 (Herbicidal ratio of 90% or more (almost completely withered))	–	–	–	–	5 (Herbicidal ratio of 90% or more (almost completely withered))	–	5 (Herbicidal ratio of 90% or more (almost completely withered))	I: Avena fatua, herbicidal effect grade (Avena fatua [1]; 320 g/ha): 3 (Herbicidal ratio of 40% or higher and lower than 70%); P: Stellaria media, herbicidal effect grade (Stellaria media; 320 g/ha): 0 (Herbicidal ratio of 5% or lower (almost no effect)); M: Abutilon theophrasti, herbicidal effect (criteria 0-5) (Abutilon theophrasti [2]): 4 (Herbicidal ratio of 70% or higher and lower than 90%); M: Abutilon theophrasti, herbicidal effect grade (Abutilon theophrasti [3]; 320 g/ha): 4 (Herbicidal ratio of 70% or higher and lower than 90%); c: corn, effect grade on crop (corn; 320 g/ha): 5 (Herbicidal ratio of 90% or more (almost completely withered)); f: beet, effect grade on crop (beet; 320 g/ha): 0 (Herbicidal ratio of 5% or lower (almost no effect)); F: Digitaria ciliaris, herbicidal effect grade (Digitaria ciliaris; 320 g/ha): 5 (Herbicidal ratio of 90% or more (almost completely withered)); K: Lolium multiflorum Lam., herbicidal effect (criteria 0-5) (Lolium multiflorum Lam.): 5 (Herbicidal ratio of 90% or more (almost completely withered)); e: wheat, effect on crop (criteria 0-5) (wheat): 5 (Herbicidal ratio of 90% or more (almost completely withered)); I: Avena fatua, herbicidal effect (criteria 0-5) (Avena fatua [5]): 5 (Herbicidal ratio of 90% or more (almost completely withered))
